Read-outs that look alike come from different tables or passages of the source.
Tests used:
phospho-ERK = experiment: Cellular phospho-ERK assay; format: cell-based; details: NCI-H358 cells, 2 hour incubation, ratio of p-Erk vs total Erk, read-out: IC50 (nM) pERK (Cell)
Outline: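 NCI-H358 cells seeded overnight, then exposed to compound dose-response titrations for 2 hours at 37° C. in RPMI. Lysates assayed by AlphaLISA SureFire Ultra multiplex for p-Erk and total Erk; ratio p-Erk/total Erk used as readout, IC50 from 4-parameter logistic fit.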

[1] = molecular target: Biotinylated KRAS G12C protein (Homo sapiens (Human), UniProt P01116, C118S/C51S/C80L/G12C); experiment: SOS-catalyzed nucleotide exchange assay (TR-FRET); format: biochemical; details: in vitro apparent potency; preincubation time of 60 minutes prior to addition of SOS
Outline: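 Biotinylated KRAS G12C preloaded with Bodipy-GDP and Tb-streptavidin, then incubated with compound (10-point, 3-fold series) for 60 min at RT. Exchange started with SOS and GTP for 60 min. TR-FRET 520/495 ratio normalised to DMSO and saturating-inhibitor controls; four-parameter fit.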

Chain of Biotinylated KRAS G12C protein (P01116 other isoform, or with tags, fused parts or gaps, stated change not applied): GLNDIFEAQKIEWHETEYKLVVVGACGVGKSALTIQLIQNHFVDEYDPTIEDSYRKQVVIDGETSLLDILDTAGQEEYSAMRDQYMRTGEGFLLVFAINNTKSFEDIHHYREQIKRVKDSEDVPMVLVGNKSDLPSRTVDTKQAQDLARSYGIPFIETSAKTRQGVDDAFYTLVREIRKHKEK

Row | SMILES | IC50 (phospho-ERK; Homo sapiens, NCI-H358, 2 h) [nM] | IC50 [1] [nM] | IC50 (phospho-ERK) [nM]
1 | C=CC(=O)N1C[C@H](C)N(c2nc(=O)n3c4nc(c(F)cc24)-c2c(F)cccc2OC(C)CCc2ccnc(C(C)C)c2-3)C[C@H]1C (single isomer, unassigned) [Example 81] | 21 | 2.9 | 
2 | C=CC(=O)N1CC(C)N(c2nc(=O)n3c4nc(c(F)cc24)-c2c(F)ccc(F)c2OCC(F)(F)CCc2ccnc(C(C)C)c2-3)CC1C [Example 55, (5aRa,18aRa)-2-[(2S,5R)-2,5-dimethyl-4-(prop-2-enoyl)piperazin-1-yl]-12,12,15,18,21-pentafluoro-6-(propan-2-yl)-10,11,12,13-tetrahydro-4H-1,19-(ethanediylidene)pyrido[4,3-f]pyrimido[1,6-h][1,8,10] benzoxadiazacyclotri-decin-4-one] | 29 | 2.7 | 
3 | C=CC(=O)N1CCN(c2nc(=O)n3c4nc(c(F)cc24)-c2c(F)cccc2OCCCc2ccnc(C(C)C)c2-3)C(C)(C)C1 [Example 102, 2-[2,2-dimethyl-4-(prop-2-enoyl)piperazin-1-yl]-17,20-difluoro-6-(propan-2-yl)-11,12-dihydro-4H,10H-1,18-ethenopyrido[4,3-e]pyrimido[1,6-g][1,7,9] benzoxadiazacyclododecin-4-one] | 149 | 35 | 
4 | [2H]C1([2H])Oc2ccc(F)c(F)c2-c2nc3c(cc2F)c(N2C[C@@H](C)N(C(=O)C=C)C[C@@H]2C)nc(=O)n3-c2c(ccnc2C(C)C)OC1([2H])[2H] [Example 64, 2-[(2S,5R)-2,5-Dimethyl-4-(prop-2-enoyl)piperazin-1-yl]-16,17,20-trifluoro-6-(propan-2-yl)-11,12-di[(^2H)hydro](11,12-^2H2)-4H-1,18-(ethanediylidene)pyrido [4,3-e]pyrimido[1,6-g][1,4,7,9] benzodioxadiazacyclo-dodecin-4-one] | 33 | 5.7 | 
5 | C=CC(=O)N1C[C@H](C)N(c2nc(=O)n3c4nc(c(F)cc24)-c2c(Cl)cccc2OCCOc2ccnc(C(C)C)c2-3)C[C@H]1C [Example 83, 17-chloro-2-[(2S,5R)-2,5-dimethyl-4-(prop-2-enoyl)piperazin-1-yl]-20-fluoro-6-(propan-2-yl)-11,12-dihydro-4H-1,18-(ethanediylidene)pyrido[4,3-e]pyrimido[1,6-g][1,4,7,9]benzodioxadiazacyclododecin-4-one] | 8.9 | 11 | 
6 | C=CC(=O)N1CCN(c2nc(=O)n3c4nc(c(F)cc24)-c2c(F)cccc2OCCCc2ccnc(C(C)C)c2-3)C(Cc2ccccc2)C1 (stereo not shown) [Example 100, 2-[2-benzyl-4-(prop-2-enoyl)piperazin-1-yl]-17,20-difluoro-6-(propan-2-yl)-11,12-dihydro-4H,10H-1,18-ethenopyrido[4,3-e]pyrimido[1,6-g][1,7,9]benzoxadiazacyclododecin-4-one] | 508 | 25 | 
7 | C=CC(=O)N1CCN(c2nc(=O)n3c4nc(c(F)cc24)-c2c(F)cccc2OCCOc2ccnc(C(C)C)c2-3)[C@@H](C)C1 (single isomer, unassigned) [Example 12a] | 6.9 | 3.9 | 
8 | C=CC(=O)N1C[C@H](C)N(c2nc(=O)n3c4nc(c(F)cc24)-c2c(F)cccc2OCC(F)(F)CCc2ccnc(C(C)C)c2-3)C[C@H]1C [Example 52, (5aRa,18aRa)-2-[(2S,5R)-2,5-dimethyl-4-(prop-2-enoyl)piperazin-1-yl]-12,12,18,21-tetrafluoro-6-(propan-2-yl)-10,11,12,13-tetrahydro-4H-1,19-(ethanediylidene)pyrido[4,3-f]pyrimido[1,6-h][1,8,10]benzoxadiazacyclotridecin-4-one] |  | 1.8 | 9.3
9 | C=C(C#N)C(=O)N1C[C@H](C)N(c2nc(=O)n3c4nc(c(Cl)cc24)-c2c(F)ccc(F)c2OCCCc2ccnc(C(C)C)c2-3)C[C@H]1C [Example 121, 2-{(2R,5S)-4-[20-chloro-14,17-difluoro-4-oxo-6-(propan-2-yl)-11,12-dihydro-4H,10H-1,18-ethenopyrido[4,3-e]pyrimido[1,6-g][1,7,9]benzoxadiazacyclododecin-2-yl]-2,5-dimethylpiperazine-1-carbonyl}prop-2-enenitrile] |  | 195 | > 30000
10 | C=CC(=O)N1C[C@H](C)N(c2nc(=O)n3c4nc(c(F)cc24)-c2cccc(O)c2OCCCc2ccnc(C(C)C)c2-3)C[C@H]1C [Example 113, 2-[(2S,5R)-2,5-dimethyl-4-(prop-2-enoyl)piperazin-1-yl]-20-fluoro-14-hydroxy-6-(propan-2-yl)-11,12-dihydro-4H,10H-1,18-(ethanediylidene)pyrido[4,3-e]pyrimido[1,6-g][1,7,9]benzoxadiazacyclododecin-4-one] |  | 33 | 113
11 | C=CC(=O)N1C[C@H](C)N(c2nc(=O)n3c4nc(c(F)cc24)-c2c(F)ccc(F)c2OCCCc2ccnc(C(C)C)c2-3)C[C@H]1C [Example 95, 2-[(2S,5R)-2,5-dimethyl-4-(prop-2-enoyl)piperazin-1-yl]-14,17,20-trifluoro-6-(propan-2-yl)-11,12-dihydro-4H,10H-1,18-(ethanediylidene)pyrido[4,3-e]pyrimido[1,6-g][1,7,9]benzoxadiazacyclododecin-4-one] | 15 | 2.5 | 
12 | C=CC(=O)N1CCN(c2nc(=O)n3c4nc(c(F)cc24)-c2ccnn2CCCCc2ccnc(C(C)C)c2-3)[C@@H](C)C1 [Example 5, 20-fluoro-2-[(2S)-2-methyl-4-(prop-2-enoyl)piperazin-1-yl]-6-(propan-2-yl)-10,11,12,13-tetrahydro-4H-1,18-(ethanediylidene)-pyrazolo[5,1-e]pyrido-[4,3-k]pyrimido[1,6-a]-[1,3,6]triazacyclododecin-4-one] | 4440 | 898 | 
13 | C=CC(=O)N1CCN(c2nc(=O)n3c4nc(c(F)cc24)-c2c(F)cccc2OCCCc2ccnc(C(C)C)c2-3)C(C(F)F)C1 (stereo not shown) [Example 99, 2-[2-(difluoromethyl)-4-(prop-2-enoyl)piperazin-1-yl]-17,20-difluoro-6-(propan-2-yl)-11,12-dihydro-4H,10H-1,18-ethenopyrido[4,3-e]pyrimido[1,6-g][1,7,9]benzoxadiazacyclododecin-4-one] | 22 | 12 | 
14 | C=CC(=O)N1CCN(c2nc(=O)n3c4nc(c(F)cc24)-c2cccc4cnn(c24)CCCOc2ccnc(C(C)C)c2-3)[C@H](C)C1 [Example 3b, 22-fluoro-2-[(2S)-2-methyl-4-(prop-2-enoyl)piperazin-1-yl]-6-(propan-2-yl)-12,13-dihydro-4H,11H-1,20-ethenopyrido[4′,3′:2,3]pyrimido[1′,6′:4,5][1,4,6,10]oxatriazacyclotridecino[8,9,10-hi]indazol-4-one] |  | 15 | 93
15 | C=CC(=O)N1CCN(c2nc(=O)n3c4nc(c(F)cc24)-c2cccc4cnn(c24)CCCCc2ccnc(C(C)C)c2-3)[C@@H](C)C1 [Example 6, 22-fluoro-2-[(2S)-2-methyl-4-(prop-2-enoyl)piperazin-1-yl]-6-(propan-2-yl)-10,11,12,13-tetrahydro-4H-1,20-(ethanediylidene)-pyrido[4′,3′:12,13]pyrimido-[1′,6′:1,2][1,3,7]triazacyclo-tridecino[5,6,7-hi]indazol-4-one] | 45 | 9.2 | 
16 | C=CC(=O)N1C[C@H](C)N(c2nc(=O)n3c4nc(c(F)cc24)-c2c(ccc(F)c2F)OCC(F)(F)CCc2ncnc(C(C)C)c2-3)C[C@H]1C [Example 58, 2-[(2S,5R)-2,5-dimethyl-4-(prop-2-enoyl)piperazin-1-yl]-12,12,17,18,21-pentafluoro-6-(propan-2-yl)-10,11,12,13-tetrahydro-4H-1,19-(ethanediylidene)dipyrimido [4,5-f:1′,6′-h][1,8,10] benzoxadiazacyclo-tridecin-4-one] | 14 | 0.74 | 
17 | C=CC(=O)N1CC(C)N(c2nc(=O)n3c4nc(c(F)cc24)-c2c(ccc(F)c2F)OCC(F)(F)CCc2ccnc(C(C)C)c2-3)CC1C [Example 54, (5aRa,18aRa)-2-[(2S,5R)-2,5-dimethyl-4-(prop-2-enoyl)piperazin-1-yl]-12,12,17,18,21-pentafluoro-6-(propan-2-yl)-10,11,12,13-tetrahydro-4H-1,19-(ethanediylidene)pyrido[4,3-f]pyrimido[1,6-h][1,8,10]benzoxadiazacyclotridecin-4-one] |  | 2.4 | 16
18 | C=CC(=O)N1C[C@H](C)N(c2nc(=O)n3c4nc(c(Cl)cc24)-c2c(ccc(F)c2F)OCCCc2ncnc(C(C)C)c2-3)C[C@H]1C [Example 74, 20-chloro-2-[(2S,5R)-2,5-dimethyl-4-(prop-2-enoyl)piperazin-1-yl]-16,17-difluoro-6-(propan-2-yl)-11,12-dihydro-4H,10H-1,18-ethenodipyrimido[4,5-e:1′,6′-g][1,7,9]benzoxadiazacyclododecin-4-one] | 3.6 | 0.51 | 
19 | C=CC(=O)N1CCN(c2nc(=O)n3c4nc(c(F)cc24)-c2c(F)cccc2CCOCCc2ccnc(C(C)C)c2-3)[C@H](C)C1 [Example 17b, 18,21-difluoro-2-[(2S)-2-methyl-4-(prop-2-enoyl)piperazin-1-yl]-6-(propan-2-yl)-10,11,13,14-tetrahydro-4H-1,19-ethenopyrido[3,4-e]pyrimido[6,1-c][9,2,4]benzoxadiazacyclotridecin-4-one] |  | 370 | 1180
20 | C=CC(=O)N1C[C@H](C)N(c2nc(=O)n3c4nc(c(F)cc24)-c2c(ccc(F)c2F)OCCC(C)c2ccnc(C(C)C)c2-3)C[C@H]1C (single isomer, unassigned) [Example 91] | 410 | 113 | 

Reference: patent US20240043448A1, “Small Molecule Inhibitors of KRAS G12C Mutant” (Merck Sharp & Dohme LLC, priority 2019, published 2024)
